Patent US12319652B2, “Salts and solid forms of (R)-1-(5-methoxy-1H-indol-1-yl)-N,N-dimethylpropan-2-amine” (priority 2021, dated 2025)

Columns and labels:
[1] = Equilibrium humidity evaluation of crystalline compound 1 HCl Form A (95% RH/20° C.); assay type: physicochemical
Description: The stability of crystalline compound 1 HCl Form A was evaluated. Absorbent compound 1·Cl (Form A), (100 mg) was maintained, open-capped at 95% RH/20° C. and monitored at t=0, t=5 d and t=10 d, time points.
While absorbent Compound 1 HCl Form A), (100 mg) was placed open-capped inside double, cable-tied, electrostatic polythene bags (to mimic a typical packaging configuration) and placed inside the same humidity chamber at 95% RH at 20° C. and monitored at t=0, t=5 d and t=10 d time points. Stability of compound 1·HCl (Form A) at 40° C./75% RH was examined as part of the salt screen, and was stable over 10 d.

[2] = Qualitative solubility screen of Compound 1 HCl; assay type: physicochemical
Description: The qualitative solubility screen was carried out to determine the range of solvents incorporated into future suspension equilibration panels.
Products that crystallized were centrifuged and analyzed as wet pellet by XRPD, dried under reduced pressure and re-analyzed by XRPD, with selected samples further analyzed by TGA and ^1H NMR spectroscopy.

[3] = Heat-up/cool down (HUCD) crystallization of compound 1 Fumarate in different solvents
Description: Crystallisation from different solvents can be a useful method to investigate alternative polymorphic forms. This crystallisation screen of compound 1·Fumarate could also be used to identify potential conditions for future scale-up crystallisations to control the form outcome. Amorphous compound 1 fumarate (batch 1) was crystallised from several solvents (refer to Table 64). Only entries N1 AND N2 remained in solution when cooled down. The XRPD diffractograms of the rest, which delivered solids, matched monofumarate Form A when oven dried (FIG. 103).
Separate portions of compound 1 Fumarate (75 mg, 1.0 wt.) were charged to separate vessels. The appropriate solvents (750 μl) were charged to the relevant vessels and subsequent charges of the appropriate co-solvent were made to accomplish dissolution. The solutions were cooled to 18 to 23° C. and allowed to stand undisturbed, until crystallization was judged complete. After this time the products were isolated by centrifugation, washed with recycled maturation solvent, dried under reduced pressure at 40° C. and analyzed by XRPD for evidence of alternative crystalline forms (FIG. 103).

[4] = t = 10 d, open-capped vial inside double bags at 95% RH/20 (Table 111)
[5] = t = 10 d, open-capped vial inside double bags at 95% RH/20 (Table 112)
[6] = Ethanol/Water (15% v/v, 0.5 aw), 5 vol
[7] = Heptane (5 vol) + 2-Methyl THF 380 μl
[8] = Heptane (5 vol) + 2-Propanol 120 μl
[9] = Heptane (5 vol) + Acetone 200 μl
[10] = Heptane (5 vol) + Butanol 100 μl
[11] = Heptane (5 vol) + Dichloromethane 160 μl
[12] = Heptane (5 vol) + Diethyl ether 800 μl
[13] = Heptane (5 vol) + Dioxane 240 μl
[14] = Heptane (5 vol) + Ehtyl acetate 420 μl
[15] = Heptane (5 vol) + Ethanol 180 μl
[16] = Heptane (5 vol) + Isopropyl acetate 660 μl
[17] = Heptane (5 vol) + Methylethyl ketone 100 μl
[18] = Heptane (5 vol) + Tetrahydrofuran 300 μl
[19] = no precipitant solvent (—), Toluene 800 μl

COc1ccc2c(ccn2C[C@@H](C)N(C)C)c1.Cl [Compound 1 HCl]
HPLC purity data, peak RT 11.41, RRT 0.94 ([1]; t = 0, Table 111): 0.07
HPLC purity data, peak RT 12.41, RRT 1.00 (main peak) ([1]; t = 0, Table 111): 99.65
HPLC purity data, peak RT 14.32, RRT 1.18 ([1]; t = 0, Table 111): 0.03
HPLC purity data, peak RT 15.05, RRT 1.24 ([1]; t = 0, Table 111): 0.05
HPLC purity data, peak RT 15.41, RRT 1.27 ([1]; t = 0, Table 111): 0.07
HPLC purity data, peak RT 15.78, RRT 1.30 ([1]; t = 0, Table 111): 0.04
HPLC purity data, peak RT 16,50, RRT 1.36 ([1]; t = 0, Table 111): 0.08
HPLC purity data, peak RT 11.41, RRT 0.94 ([1]; t = 0, Table 112): 0.07
HPLC purity data, peak RT 12.01, RRT 0.99 ([1]; t = 0, Table 112): 0.02
HPLC purity data, peak RT 12.14, RRT 1.00 (main peak) ([1]; t = 0, Table 112): 99.65
HPLC purity data, peak RT 14.32, RRT 1.18 ([1]; t = 0, Table 112): 0.03
HPLC purity data, peak RT 15.05, RRT 1.24 ([1]; t = 0, Table 112): 0.05
HPLC purity data, peak RT 15.41, RRT 1.27 ([1]; t = 0, Table 112): 0.07
HPLC purity data, peak RT 15.78, RRT 1.30 ([1]; t = 0, Table 112): 0.04
HPLC purity data, peak RT 16.50, RRT 1.36 ([1]; t = 0, Table 112): 0.08
HPLC purity data, peak RT 11.29, RRT 0.93 [1, 4]: 0.06
HPLC purity data, peak RT 11.41, RRT 0.94 [1, 4]: 0.02
HPLC purity data, peak RT 12.41, RRT 1.00 (main peak) [1, 4]: 99.79
HPLC purity data, peak RT 14.32, RRT 1.18 [1, 4]: 0.03
HPLC purity data, peak RT 15.05, RRT 1.24 [1, 4]: 0.04
HPLC purity data, peak RT 15.41, RRT 1.27 [1, 4]: 0.02
HPLC purity data, peak RT 11.41, RRT 0.94 [1, 5]: 0.06
HPLC purity data, peak RT 12.01, RRT 0.99 [1, 5]: 0.02
HPLC purity data, peak RT 12.14, RRT 1.00 (main peak) [1, 5]: 99.78
HPLC purity data, peak RT 14.32, RRT 1.18 [1, 5]: 0.03
HPLC purity data, peak RT 14.68, RRT 1.21 [1, 5]: 0.03
HPLC purity data, peak RT 15.05, RRT 1.24 [1, 5]: 0.05
HPLC purity data, peak RT 15.41, RRT 1.27 [1, 5]: 0.01
HPLC purity data, peak RT 15.78, RRT 1.30 [1, 5]: 0.02
XRPD (dried pellet) ([2]; 2-Propanol): Form A
XRPD (moist pellet) ([2]; 2-Propanol): Paste
Solid on cooling? ([2]; 2-Propanol, 10 vol): ✓
Solution at reflux ([2]; 2-Propanol, 10 vol): ✓
Solution at reflux ([2]; 2-Propanol, 15 vol): ✓
XRPD (dried pellet) ([2]; Acetone): Form A
XRPD (moist pellet) ([2]; Acetone): Form A
XRPD (moist pellet) ([2]; Acetone/Water (5% v/v, 0.5 aw)): Solution
Solid on cooling ([2]; Acetone/Water (5% v/v, 0.5 aw), 5 vol): ✓
Solution at reflux ([2]; Acetone/Water (5% v/v, 0.5 aw), 10 vol): ✓
XRPD (dried pellet) ([2]; Chlorobenzene): Form A
XRPD (moist pellet) ([2]; Chlorobenzene): Paste
XRPD (moist pellet) ([2]; DCM): Form A
XRPD (moist pellet) ([2]; EtOAc): Form A
XRPD (dried pellet) ([2]; EtOH): Form A
XRPD (moist pellet) ([2]; EtOH): Form A
Solid on cooling ([2]; EtOH, 15 vol): ✓
Solid on cooling ([2]; EtOH, 20 vol): ✓
XRPD (moist pellet) ([2]; Ethanol/Water (15% v/v, 0.5 aw)): Solution
Solid on cooling [2, 6]: ✓
Solution at reflux [2, 6]: ✓
Solution at 20° C. ([2]; Ethanol/Water (15% v/v, 0.5 aw), 10 vol): ✓
XRPD (moist pellet) ([2]; Ethyl formate): Form A
XRPD (moist pellet) ([2]; Heptane): Form A
XRPD (moist pellet) ([2]; Isopropanol/Water (12%, v/v, 0.5 aw)): Solution
Solid on cooling ([2]; Isopropanol/Water (12%, v/v, 0.5 aw), 5 vol): ✓
Solution at reflux ([2]; Isopropanol/Water (12%, v/v, 0.5 aw), 10 vol): ✓
XRPD (dried pellet) ([2]; MEK): Form A
XRPD (moist pellet) ([2]; MEK): Paste
XRPD (moist pellet) ([2]; MeCN): Form A
Solid on cooling ([2]; MeCN, 15 vol): ✓
Solid on cooling ([2]; MeCN, 20 vol): ✓
XRPD (moist pellet) ([2]; MeOH): Solution
Solution at reflux ([2]; MeOH, 10 vol): ✓
XRPD (dried pellet) ([2]; MeTHF): Form A
XRPD (moist pellet) ([2]; MeTHF): Paste
XRPD (dried pellet) ([2]; Methyl acetate): Form A
XRPD (moist pellet) ([2]; Methyl acetate): Paste
XRPD (dried pellet) ([2]; Nitromethane): Form A
XRPD (moist pellet) ([2]; Nitromethane): Paste
Solid on cooling? ([2]; Nitromethane, 10 vol): ✓
Solution at 40° C. ([2]; Nitromethane, 15 vol): ✓
Solution at reflux ([2]; Nitromethane, 15 vol): ✓
XRPD (moist pellet) ([2]; TBME): Form A
XRPD (dried pellet) ([2]; Toluene): Form A
XRPD (moist pellet) ([2]; Toluene): Paste
XRPD (moist pellet) ([2]; Water): Solution
Solution at 20° C. ([2]; Water, 5 vol): ✓
Qualitative solubility ([2]; polar and aqueous solvents at temperature, panel of 22 solvents): soluble
Qualitative solubility ([2]; polar solvents and solvents with high water activity): readily soluble

COc1ccc2c(ccn2C[C@@H](C)[NH+](C)C)c1.O=C(O)/C=C/C(=O)O [Compound 1 fumarate, (R)-1-(5-methoxy-1H-indol-1-yl)-N,N-dimethylpropan-2-amine fumarate]
Form XRPD (oven dried) [3, 7]: Pattern 1
Observations (t = 0 @ T = 20° C.) [3, 7]: suspension
Observations (t = 3 d @ 20° C.) [3, 7]: suspension
Form XRPD (oven dried) [3, 8]: Pattern 1
Observations (t = 0 @ T = 20° C.) [3, 8]: suspension
Observations (t = 3 d @ 20° C.) [3, 8]: suspension
Form XRPD (oven dried) [3, 9]: Pattern 1
Observations (t = 0 @ T = 20° C.) [3, 9]: suspension
Observations (t = 3 d @ 20° C.) [3, 9]: suspension
Form XRPD (oven dried) [3, 10]: Pattern 1
Observations (t = 0 @ T = 20° C.) [3, 10]: suspension
Observations (t = 3 d @ 20° C.) [3, 10]: suspension
Form XRPD (oven dried) ([3]; Heptane (5 vol) + CPME 800 μl): Pattern 1
Observations (t = 0 @ T = 20° C.) ([3]; Heptane (5 vol) + CPME 800 μl): gum
Observations (t = 3 d @ 20° C.) ([3]; Heptane (5 vol) + CPME 800 μl): gum
Observations (t = 0 @ T = 20° C.) [3, 11]: suspension
Observations (t = 3 d @ 20° C.) [3, 11]: suspension
Form XRPD (oven dried) [3, 12]: Pattern 1
Observations (t = 0 @ T = 20° C.) [3, 12]: gum
Observations (t = 3 d @ 20° C.) [3, 12]: gum
Observations (t = 0 @ T = 20° C.) [3, 13]: suspension
Observations (t = 3 d @ 20° C.) [3, 13]: suspension
Form XRPD (oven dried) [3, 14]: Pattern 1
Observations (t = 0 @ T = 20° C.) [3, 14]: suspension
Observations (t = 3 d @ 20° C.) [3, 14]: suspension
Form XRPD (oven dried) [3, 15]: Pattern 1
Observations (t = 0 @ T = 20° C.) [3, 15]: suspension
Form XRPD (oven dried) [3, 16]: Pattern 1
Observations (t = 0 @ T = 20° C.) [3, 16]: suspension
Observations (t = 3 d @ 20° C.) [3, 16]: suspension
Form XRPD (oven dried) ([3]; Heptane (5 vol) + MIBK 420 μl): Pattern 1
Observations (t = 0 @ T = 20° C.) ([3]; Heptane (5 vol) + MIBK 420 μl): suspension
Observations (t = 3 d @ 20° C.) ([3]; Heptane (5 vol) + MIBK 420 μl): suspension
Form XRPD (oven dried) [3, 17]: Pattern 1
Observations (t = 3 d @ 20° C.) [3, 17]: suspension
Form XRPD (oven dried) [3, 18]: Pattern 1
Observations (t = 0 @ T = 20° C.) [3, 18]: suspension
Observations (t = 3 d @ 20° C.) [3, 18]: suspension
Observations (t = 0 @ T = 20° C.) ([3]; Water (5 vol) + Ethanol 80 μl): solution
Form XRPD (oven dried) [3, 19]: Pattern 1
Observations (t = 0 @ T = 20° C.) [3, 19]: gum
Observations (t = 3 d @ 20° C.) [3, 19]: gum
